# Read-outs that look alike come from different tables or passages of the source.
# T1: VIIa (Homo sapiens, UniProt P08709)
# T1 construct: VIIa or factor VIIa means coagulation factor VIIa (active enzyme); purchased American Diagnostica
# T1 sequence (P08709 61-212): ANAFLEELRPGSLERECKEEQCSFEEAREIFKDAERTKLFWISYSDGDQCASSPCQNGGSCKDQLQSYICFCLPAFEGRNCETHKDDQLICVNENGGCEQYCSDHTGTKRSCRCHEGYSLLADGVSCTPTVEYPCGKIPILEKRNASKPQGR
# T1 sequence (P08709 213-466): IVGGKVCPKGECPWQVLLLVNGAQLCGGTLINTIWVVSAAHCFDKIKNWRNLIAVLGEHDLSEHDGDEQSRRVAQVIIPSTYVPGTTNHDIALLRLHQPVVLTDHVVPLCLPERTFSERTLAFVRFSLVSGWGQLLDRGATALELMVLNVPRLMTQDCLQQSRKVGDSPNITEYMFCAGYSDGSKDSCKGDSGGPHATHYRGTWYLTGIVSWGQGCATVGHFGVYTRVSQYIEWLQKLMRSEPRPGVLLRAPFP
# B1: rTF: recombinant, membrane-anchoring tissue factor; rTF/PCPS is rTF relipidated into 20 mol % PS, 80 mol % PC vesicles (protein, UniProt P13726 1-295, looked up)
# chain: METPAWPRVPRPETAVARTLLLGWVFAQVAGASGTTNTVAAYNLTWKSTNFKTILEWEPKPVNQVYTVQISTKSGDWKSKCFYTTDTECDLTDEIVKDVKQTYLARVFSYPAGNVESTGSAGEPLYENSPEFTPYLETNLGQPTIQSFEQVGTKVNVTVEDERTLVRRNNTFLSLRDVFGKDLIYTLYYWKSSSSGKKTAKTNTNEFLIDVDKGENYCFSVQAVIPSRTVNRKSTDSPVECMGQEKGEFREIFYIIGAVVFVVIILVIILAISLHKCRKAGVGQSWKENSPLNVS
# modifications: full-length relipidated in PS/PC vesicles
# notes: recombinant, membrane-anchoring tissue factor; rTF/PCPS is rTF relipidated into 20 mol % PS, 80 mol % PC vesicles
# Columns and labels:
# [1] = test system: pooled normal plasma; assay: PT clotting assay with modified thromboplastin reagents; assay type: biochemical, human; details: for Concentration of TF that yields a 50 sec. clot time: His-tagged sTF with Ni-NTA-DOGS/PCPSPE (SUV with 10 mol % Ni-NTA-DOGS), rTF with PCPS
# Procedure: Thromboplastin reagents containing TF and phospholipids were prepared and diluted to various concentrations of TF. The diluted thromboplastin reagents were then used in the PT assay (FIG. 4). The four modified thromboplastin reagents were made as follows: 1. 100 ng/ml rTF relipidated in PCPS vesicles (30 μM), 2. […] The thromboplastin reagents were diluted in TA (50 mM Tris-HCl buffer, pH 7.5, 0.1% bovine serum albumin, 0.1% NaN3) to varying concentrations of TF.
# (§1) The modified aPTT reagent contained varying concentrations of the indicated metal salts, NTA-lipids (100 μM lipid), 0.08% (w/v) sodium azide, and 16 mM Hepes buffer, pH 7.4.
# Thromboplastin reagents—To prepare a conventional thromboplastin reagent, rTF was relipidated into phospholipid vesicles composed of 20 mol % PS, 80 mol % PC (rTF/PCPS) at a 8700:1 molar ratio of phospholipid to rTF as described. rTF/PCPS preparations were then diluted to the desired final rTF concentration in TBSA (50 mM Tris-HCl buffer, pH 7.5, 100 mM NaCl, 0.1% bovine serum albumin, 0.1% NaN3).
# (§2) PT clotting assay—PT assays were performed in a model ST4 coagulometer (Diagnostica Stago) by pipetting 50 μl of 25 mM CaCl2 and 50 μl diluted thromboplastin reagent into a coagulometer cuvette and allowing the mixture to warm to 37° C. for 2 min. Clotting was then initiated by pipetting 50 μl pre-warmed, pooled normal plasma into the cuvette and the time to clot formation recorded.
# [2] = test system: pooled normal plasma; assay: aPTT clotting assay; assay type: biochemical, human; details: metal ion with NTA-lipids (100 μM lipid)
# Procedure: as §1
# aPTT assays were performed with modified aPTT reagents containing varying concentrations of NiSO4, CoCl2, CuSO4, ZnCl2, FeSO4, CdCl2, CrCl2, AgNO3 or MnCl2 in the presence of NTA-lipids (FIG. 12C). […] Co^2+ and Zn^2+ some activity (see FIG. 12C). […] Ni^2+ performed substantially better in this assay than did Cu^2+.
# aPTT clotting assay—aPTT clotting assays were also carried out in a model ST4 coagulometer (Diagnostica Stago). The aPTT assays were performed by pipetting 50 μl of an aPTT reagent and 50 μl pooled normal plasma into a coagulometer cuvette and incubating the mixture for 3 min at 37° C. 50 μl prewarmed 25 mM CaCl2 was then pipetted into the cuvette and the time to clot formation was recorded.
# [3] = target: T2, VIIa (Homo sapiens, UniProt P08709); assay: Allosteric activation of VIIa (chromogenic assay); assay type: biochemical; details: compared to sTF and rTF/PCPS; data not shown
# T2 construct: VIIa or factor VIIa means coagulation factor VIIa (active enzyme); purchased American Diagnostica
# Procedure: Measurement of Allosteric Activation of VIIa—The ability of TF to allosterically activate factor VIIa was carried out measuring the enzymatic activity of factor VIIa by a chromogenic assay. […] The reaction was initiated by the addition of the chromogenic substrate, Chromozym® t-PA (ChtPA) in a flat bottom, 96-well plate. […] Change in A405 was monitored at ambient temperature in a VERSAmax microplate reader (Molecular Devices), reading every 30 seconds for 20 minutes.
# [4] = target: T1, VIIa; assay: Kd for VIIa binding to TF (X activation rate as readout)
# Procedure: When VIIa binds to TF, its rate of X activation increases dramatically, so this can be used as a convenient readout for TF:VIIa complex formation. […] Therefore, when the isolated TF ectodomain was attached to the membrane surface via interaction with metal-chelating lipids, its VIIa binding ability was indistinguishable from membTF that spanned the lipid bilayer.
# Measurement of the Kd for VIIa binding to TF—The binding affinity of VIIa for various forms of TF was measured using the TF-dependent increase in the rate of X activation as the readout for TF:VIIa complex formation. Activation of X by the TF:VIIa complex was measured by adapting the continuous chromogenic assay of Fiore et al.. Reaction mixtures containing Vila and either rTF/PCPS or sTF+SUVs were prepared in HBSAC. Reactions were initiated by adding a mixture of X and the chromogenic substrate, S-2222, in a flat bottom, 96-well plate. Change in A405 was monitored at ambient temperature in a VERSAmax microplate reader (Molecular Devices), sampling every 15 sec for 20 min. Initial rates of X activation were determined by fitting a second-order polynomial to the A405 data as described. The quadratic ligand binding equation was fit to the rate data as described to derive apparent Kd values for the binding of VIIa to TF. For experiments using relipidated rTF, typical reaction mixtures containing 0.25 μM VIIa and 20 nM X in HBSAC were incubated with increasing concentrations of rTF/PCPS.
# [5] = test system: factor-deficient plasmas; assay: PT assay with factor-deficient plasmas; assay type: biochemical, human; details: 3 μg/ml sTF(His)6 with 100 μM 15% Ni-lipid, or commercial reagent
# Excerpt: A major goal was to create a soluble form of TF that can function as a thromboplastin reagent in the PT assays. […] This reagent was then compared in PT assays to a commercially available thromboplastin reagent, STA-Neoplastine CI Plus (Diagnostica Stago). Clotting times with the two reagents were compared using pooled normal plasma as well as a number of factor-deficient plasmas (FIG. 6). (The latter were deficient in factors V, VII, VIII, IX, X, XI, XII, prekallikrein (PK), or high molecular weight kininogen (HK)).
# as §2
# [6] = test system: pooled normal human plasma; assay: Clotting assay with immobilized lipids; assay type: biochemical; details: 200 nmol dried NiPCPSPE per well; 4800 nM
# Procedure: Mixtures of DOGS-NTA-Ni and phospholipids were dried-down in the wells of a polystyrene coagulometer cuvette, the cuvettes were washed to remove any non-immobilized lipid, and then sTF-5AA-(His)6 was added to the wells. Clotting tests were subsequently conducted by adding calcium ions and plasma to wells. […] Control experiments were conducted using other lipid compositions, which were all dried down onto the cuvette well at a single amount of lipid per well (200 nmol).
# Clotting assay with immobilized lipids—Lipid mixtures in chloroform were first dried down in a borosilicate glass test tube under a gentle stream of dry nitrogen gas to remove the solvent, after which the dried lipids were redissolved in n-hexane at a total lipid concentration of 0.3 to 5.3 mM. Complete lipid mixtures were termed NiPCPSPE and consisted of 10% DOGS-NTA-Ni, 12.5% PS, 30% PE, and 47.5% PC. […]
# Each well of an ST4 cuvette received 150 μl of lipid solution in hexane (containing 50 to 800 nmol total lipid per well). […] A 50 μl aliquot of 25 mM CaCl2 was added per well and the cuvettes were incubated for 2 min at 37° C., after which a 50 μl aliquot of pre-warmed (37° C.) pooled normal human plasma was added and the time to clot formation was measured.
# [7] = target: T3, X activation by VIIa (Homo sapiens, UniProt P08709); assay: Factor X activation using liposomes; assay type: biochemical; details: sTF-5AA-(His)6 with PCPS liposomes, or sTF with NiPCPS liposomes
# T3 construct: VIIa or factor VIIa means coagulation factor VIIa (active enzyme); purchased American Diagnostica
# Procedure: A stringent test of TF:VIIa function is its ability to support the activation of its natural protein substrate, X. This requires that TF be incorporated into a suitable phospholipid membrane (i.e., one containing negatively charged phospholipids). […] The ability of various forms of TF to support the activation of X was compared under equivalent concentrations of enzyme (500 pM VIIa), cofactor (4 pM TF) and liposomes (50 μM total lipid).
# Factor X activation using liposomes. […] At varying times, 20 μl aliquots were removed into a 96-well plate containing 100 μl Stop Buffer 1 (40 mM Mes-NaOH pH 5.8, 12 mM EDTA, 50 mM NaCl, 0.25% Triton X-100, 0.1% NaN3, 0.012% Antifoam C) at 4° C. After warming the stopped reactions to room temperature, Xa was detected by adding 60 μl of 1.5 mM Spectrozyme Xa in HBSAC plus 0.6 M Tricine-NaOH, pH 8.4 and quantifying change in A405. Amounts of Xa generated were determined by comparison to a standard curve with purified Xa.
# [8] = target: T1, VIIa; details: rTF relipidated into PCPS vesicles; literature [4]; read-out: Kd for VIIa binding; cited from earlier work
# [9] = ± SEM, sTF and rTF with PCPS, sTF-(His)6 with Ni-NTA-DOGS/PCPSPE (SUV with 15 mol % Ni-NTA-DOGS), read-out: Kd.app for VIIa binding
molecule,measurement,setting,value
"[Cl-].[Cl-].[Co+2] [Co^2+, CoCl2]",PT clotting time shortened to,"[1]; metal ion added to modified thromboplastin reagent, NTA-lipids, 30 ng/ml sTF-5AA-(His)6",less than 100 sec
same,activity in aPTT assay,[2],some activity
"O=S(=O)([O-])[O-].[Cu+2] [Cu^2+, CuSO4]",activity in aPTT assay,[2],dramatically shortened the clotting time
"O=S(=O)([O-])[O-].[Ni+2] [Ni^2+, NiSO4]",activity in aPTT assay,[2],dramatically shortened the clotting time
"[Cl-].[Cl-].[Zn+2] [Zn^2+, ZnCl2]",activity in PT assay,"[1]; metal ion with NTA-lipids (100 μM lipid), 30 ng/ml sTF-5AA-(His)6",some activity
same,activity in aPTT assay,[2],some activity
sTF(His)6: oligohistidine-tagged sTF; replaces the final two amino acids of sTF with six histidine residues,ability to allosterically activate VIIa,[3],able to fully allosterically activate VIIa
same,Kd,"[4]; read-out: Kd for VIIa binding to the his-tagged sTF variants, 15% Ni-lipid",0.169 nM
same,Kd,[4]; [9],0.169 ± 0.015 nM
same,procoagulant activity compared with sTF,"[1]; PT assay, 10% Ni-lipids",dramatically higher than sTF
same,Concentration of TF that yields a 50 sec. clot time,[1]; PT assay,45 ng/mL
same,"PT clotting times with plasmas deficient in factors V, VII or X",[5],prolonged clotting times
same,"PT sensitivity to deficiencies in clotting factors of the intrinsic pathway (factors VIII, IX, XI, XII, PK, or HK)",[5],insensitive
"sTF: soluble tissue factor, a truncated, soluble form of tissue factor that does not have the membrane-spanning domain nor the cytoplasmic domain [reference compound]",Kd,"[4]; sTF, read-out: Kd for VIIa binding",7 nM
same,clotting times compared with sTF-5AA-(His)6,[6],much longer clotting times
same,"rates of X activation by VIIa, control combinations",[7],negligible rates of X activation
B1,affinity of VIIa for rTF/PCPS relative to sTF,[4],approximately 100 fold
same,Kd,[4]; [9],0.04 ± 0.005 nM
same,Concentration of TF that yields a 50 sec. clot time,[1]; PT assay,0.7 ng/mL
same,Kd,[8],< 0.05 nM
